Here are results for four substances from patent US8338368B2 (priority 2005, dated 2012).

The target in one data set is Glucagon Receptor (Homo sapiens, UniProt P47871). The data set is described as follows: Functional assay, cAMP synthesis (luciferase reporter), glucagon receptor. On the technique in general: A reporter such as luciferase makes a cellular process visible.
Another data set deals with GLP-1 Receptor (Homo sapiens, UniProt P43220). The data set is described as follows: cell-based.
Chain of GLP-1 Receptor (P43220 24-463, species assumed): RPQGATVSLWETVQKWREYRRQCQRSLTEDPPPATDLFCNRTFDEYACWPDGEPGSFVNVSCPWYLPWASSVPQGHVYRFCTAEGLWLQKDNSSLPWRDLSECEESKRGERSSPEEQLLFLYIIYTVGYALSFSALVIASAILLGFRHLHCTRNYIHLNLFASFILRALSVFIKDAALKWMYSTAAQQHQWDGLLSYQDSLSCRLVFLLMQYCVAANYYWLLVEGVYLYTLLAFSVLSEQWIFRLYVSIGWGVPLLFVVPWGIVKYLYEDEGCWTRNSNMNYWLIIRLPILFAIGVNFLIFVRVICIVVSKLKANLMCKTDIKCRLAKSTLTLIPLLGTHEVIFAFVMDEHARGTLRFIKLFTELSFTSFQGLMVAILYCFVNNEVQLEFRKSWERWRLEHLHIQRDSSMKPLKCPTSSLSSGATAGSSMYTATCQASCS
For data set [1] the following is noted: pH 7.

Where two headings read alike, the source gives them in different places. Ends that are not written are not given here.

Chain of Glucagon Receptor (P47871 26-477): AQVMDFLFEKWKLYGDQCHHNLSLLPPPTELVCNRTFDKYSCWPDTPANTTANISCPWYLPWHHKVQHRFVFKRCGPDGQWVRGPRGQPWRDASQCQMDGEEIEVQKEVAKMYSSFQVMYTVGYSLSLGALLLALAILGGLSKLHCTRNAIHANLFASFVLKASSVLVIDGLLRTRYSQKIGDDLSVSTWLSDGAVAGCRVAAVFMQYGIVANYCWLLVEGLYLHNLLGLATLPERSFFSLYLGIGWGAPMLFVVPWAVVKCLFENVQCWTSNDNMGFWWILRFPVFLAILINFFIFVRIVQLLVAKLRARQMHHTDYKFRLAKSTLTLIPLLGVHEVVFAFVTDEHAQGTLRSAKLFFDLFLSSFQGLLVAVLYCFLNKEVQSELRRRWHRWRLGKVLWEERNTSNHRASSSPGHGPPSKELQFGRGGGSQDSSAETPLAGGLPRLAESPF

The term EC50 denotes the concentration giving half of the maximal effect. As for “HSQGTFTSDYSRYLDSRRAKDFVQWLMNT [Glucagon R12 K20]”, the EC50 at Glucagon Receptor was determined as 0.84 ± 0.4 nM.
Take “HSQGTFTSDYSRYLDSRRAQDFVQWLMNK [Glucagon R12 K29]”: the figures for the EC50 at GLP-1 Receptor and at Glucagon Receptor were 0.41 ± 0.24 nM and 0.81 ± 0.49 nM, respectively.
For “Glucagon Cys^17 Mal-PEG-5K [Glucagon, Cys17PEG5K]”, the “Percent Soluble” value in data set [1] is 94%.
For “Glucagon Cys^24 Maleimido, PEG-3.4K-dimer [Glucagon C24 Dimer]”, the EC50 at Glucagon Receptor (read-out: cAMP Induction Glucagon Receptor EC50, Table 3 (pegylated analogs), HEK293 cells co-transfected with glucagon receptor and CRE-luciferase, 5 h at 37° C.) was 0.1 ± 0.05 nM.
